This test deals with influenza virus (H3N2 type human vaccine New Caledonia strain). Format: cell-based.

Like-named read-outs stand apart in the source and are kept apart here.

With hinokitiol copper complex, the anti-influenza virus activity entry is reported as “ineffective”. This substance came in with an FFU (concentration 0.8 μg/ml) of 280 FFU. Moreover, where the note is “concentration 4 μg/ml”, the FFU entry is listed as “Exfoliation”. For the same substance, the FFU result (concentration 20 μg/ml) was “Exfoliation”. Where the note is “concentration 100 μg/ml”, the FFU result is “Exfoliation”.
